Measurements taken from patent US9833497B2, “Human originated EGF domain proteins and use of the same” (CHENGDU SOURCEBIO LIMITED-LIABILITY COMPANY, priority 2013, dated 2017).

Key:
Format in all cases: cell-based
Aeromonas hydrophila = test: MIC against Gram-negative bacteria: Aeromonas hydrophila; conditions: 5×10^5 CFU/mL; for MIC against A. hydrophila: Aeromonas hydrophila
Outline: (§1)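 MIC = lowest concentration of recombinant protein showing no growth. Test proteins: purified human-derived EGF domain proteins, two-fold dilution series, three wells per concentration; inoculum 5×10^5 CFU/mL in LB; incubation 37° C with shaking at 175 rpm.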

Serratia marcescens = test: MIC against Gram-negative bacteria: Serratia marcescens; conditions: 5×10^5 CFU/mL; for MIC against S. marcescens: Serratia marcescens
Outline: as §1

Pseudomonas aeruginosa = test: MIC against Gram-negative bacteria: Pseudomonas aeruginosa; conditions: 5×10^5 CFU/mL; for MIC against P. aeruginosa: Pseudomonas aeruginosa
Outline: as §1

E. coli DH5α = test: Antibacterial activity: MIC and growth curve against E. coli DH5α in 96-well plate; conditions: minimal inhibitory concentration against E. coli DH5α; 96-well plate, 5×10^5 CFU/mL, 37° C., judged after 8 h
Outline: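 Log-phase bacteria (OD600 ~0.5) resuspended in LB at 5×10^5 CFU/mL, exposed to recombinant protein at 50, 25, 12.5 μg/mL final in triplicate, 37 °C shaking at 175 rpm. OD600 read every 30 min; MIC is lowest concentration showing no growth.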

E. coli BL21 = test: MIC against Gram-negative bacteria: E. coli BL21; conditions: 5×10^5 CFU/mL
Outline: as §1

Proteus mirabilis = test: MIC against Gram-negative bacteria: Proteus mirabilis; conditions: 5×10^5 CFU/mL; for MIC against P. mirabilis: Proteus mirabilis
Outline: as §1

Klebsiella pneumonia = test: MIC against Gram-negative bacteria: Klebsiella pneumonia; conditions: 5×10^5 CFU/mL; for MIC against K. pneumonia: Klebsiella pneumonia
Outline: as §1

Moraxella catarrhalis = test: MIC against Gram-negative bacteria: Moraxella catarrhalis; conditions: 5×10^5 CFU/mL; for MIC against M. catarrhalis: Moraxella catarrhalis
Outline: as §1

Citrobacter diversus = test: MIC against Gram-negative bacteria: Citrobacter diversus; conditions: 5×10^5 CFU/mL; for MIC against C. diversus: Citrobacter diversus
Outline: as §1

Proteus vulgaris = test: MIC against Gram-negative bacteria: Proteus vulgaris; conditions: 5×10^5 CFU/mL; for MIC against P. vulgaris: Proteus vulgaris
Outline: as §1

Enterobacter cloacae = test: MIC against Gram-negative bacteria: Enterobacter cloacae; conditions: 5×10^5 CFU/mL; for MIC against E. cloacae: Enterobacter cloacae
Outline: as §1

“PRT1384 (STRTCPRDCRGRGRCEDGECICDTGYSGDDC; listed as Homo sapiens)” was tested. Which “MIC against A. hydrophila” value (Aeromonas hydrophila; 10 h cultivation at 37° C.) did it give?
Its value is 25 µg/mL.

And the “MIC against S. marcescens” value (Serratia marcescens; 10 h cultivation at 37° C.)?
Its value is 25 µg/mL.

What about the “MIC against P. aeruginosa” value (Pseudomonas aeruginosa; 10 h cultivation at 37° C.) of the same substance?
The value was 25 µg/mL.

What about the MIC (E. coli DH5α) of the same substance?
The MIC was 25 µg/mL.

And the “MIC against E. coli BL21” value (E. coli BL21; 10 h cultivation at 37° C.)?
The value was 12.5 µg/mL.

And the “MIC against P. mirabilis” value (Proteus mirabilis; 10 h cultivation at 37° C.)?
The value was 25 µg/mL.

And the “MIC against K. pneumonia” value (Klebsiella pneumonia; 10 h cultivation at 37° C.)?
Its value is 50 µg/mL.

And the “MIC against M. catarrhalis” value (Moraxella catarrhalis; 10 h cultivation at 37° C.)?
Its value is 12.5 µg/mL.

And the “MIC against C. diversus” value (Citrobacter diversus; 10 h cultivation at 37° C.)?
The value was 25 µg/mL.

What about the “MIC against P. vulgaris” value (Proteus vulgaris; 10 h cultivation at 37° C.) of the same substance?
Its value is 50 µg/mL.

And the “MIC against E. cloacae” value (Enterobacter cloacae; 10 h cultivation at 37° C.)?
Its value is 25 µg/mL.

“PRT1214 (GRENCTFAPCLEGGTCILSPKGASCNCPHPYTGDRCE; listed as Homo sapiens)” was tested. Which “MIC against A. hydrophila” value (Aeromonas hydrophila; 96-well plate, 37° C., 10 h) did it give?
The value was 50 µg/mL.

And the “MIC against S. marcescens” value (Serratia marcescens; 96-well plate, 37° C., 10 h)?
The value was 25 µg/mL.

And the “MIC against P. aeruginosa” value (Pseudomonas aeruginosa; 96-well plate, 37° C., 10 h)?
The value was 50 µg/mL.

What about the MIC (E. coli DH5α) of the same substance?
The MIC was 25 µg/mL.

What about the “MIC against E. coli BL21” value (E. coli BL21; 96-well plate, 37° C., 10 h) of the same substance?
The value was 12.5 µg/mL.

And the “MIC against P. mirabilis” value (Proteus mirabilis; 96-well plate, 37° C., 10 h)?
The value was 50 µg/mL.

What about the “MIC against K. pneumonia” value (Klebsiella pneumonia; 96-well plate, 37° C., 10 h) of the same substance?
The value was 25 µg/mL.

And the “MIC against M. catarrhalis” value (Moraxella catarrhalis; 96-well plate, 37° C., 10 h)?
Its value is 25 µg/mL.

And the “MIC against C. diversus” value (Citrobacter diversus; 96-well plate, 37° C., 10 h)?
The value was 12.5 µg/mL.

What about the “MIC against P. vulgaris” value (Proteus vulgaris; 96-well plate, 37° C., 10 h) of the same substance?
The value was 12.5 µg/mL.

And the “MIC against E. cloacae” value (Enterobacter cloacae; 96-well plate, 37° C., 10 h)?
The value was 12.5 µg/mL.

Which results are given for “PRT263 (CSKNNGGCSPYATCKSTGDGQRTCTCDTAHTVGDGLTC; listed as Homo sapiens)”?
MIC (μg/mL) A. hydrophila (Aeromonas hydrophila; 10 h cultivation at 37° C.): 25 µg/mL; MIC (μg/mL) S. marcescens (Serratia marcescens; 10 h cultivation at 37° C.): 50 µg/mL; MIC (μg/mL) P. aeruginosa (Pseudomonas aeruginosa; 10 h cultivation at 37° C.): 12.5 µg/mL; MIC (E. coli DH5α): 25 µg/mL; MIC (μg/mL) E. coli BL21 (E. coli BL21; 10 h cultivation at 37° C.): 25 µg/mL; MIC (μg/mL) P. mirabilis (Proteus mirabilis; 10 h cultivation at 37° C.): 12.5 µg/mL; MIC (μg/mL) K. pneumonia (Klebsiella pneumonia; 10 h cultivation at 37° C.): 25 µg/mL; MIC (μg/mL) M. catarrhalis (Moraxella catarrhalis; 10 h cultivation at 37° C.): 12.5 µg/mL; MIC (μg/mL) C. diversus (Citrobacter diversus; 10 h cultivation at 37° C.): 12.5 µg/mL; MIC (μg/mL) P. vulgaris (Proteus vulgaris; 10 h cultivation at 37° C.): 12.5 µg/mL; MIC (μg/mL) E. cloacae (Enterobacter cloacae; 10 h cultivation at 37° C.): 12.5 µg/mL

For “PRT605 (CLCPDDPSSNQYFAHSCYQNLWSSDVICNCLQGYTGTQCGECSTGFYGNPRISGAPCQP; listed as Homo sapiens)”, which “MIC A. hydrophila” value (Aeromonas hydrophila; 96-well plate, 37° C., 10 h) is on record?
Its value is 25 µg/mL.

And the “MIC S. marcescens” value (Serratia marcescens; 96-well plate, 37° C., 10 h)?
Its value is 50 µg/mL.

And the “MIC P. aeruginosa” value (Pseudomonas aeruginosa; 96-well plate, 37° C., 10 h)?
Its value is 50 µg/mL.

What about the MIC (E. coli DH5α) of the same substance?
Its MIC is 12.5 µg/mL.

And the “MIC E. coli BL21” value (E. coli BL21; 96-well plate, 37° C., 10 h)?
Its value is 25 µg/mL.

What about the “MIC P. mirabilis” value (Proteus mirabilis; 96-well plate, 37° C., 10 h) of the same substance?
Its value is 12.5 µg/mL.

And the “MIC K. pneumonia” value (Klebsiella pneumonia; 96-well plate, 37° C., 10 h)?
Its value is 25 µg/mL.

What about the “MIC M. catarrhalis” value (Moraxella catarrhalis; 96-well plate, 37° C., 10 h) of the same substance?
Its value is 25 µg/mL.

What about the “MIC C. diversus” value (Citrobacter diversus; 96-well plate, 37° C., 10 h) of the same substance?
The value was 50 µg/mL.

And the “MIC P. vulgaris” value (Proteus vulgaris; 96-well plate, 37° C., 10 h)?
Its value is 25 µg/mL.

What about the “MIC E. cloacae” value (Enterobacter cloacae; 96-well plate, 37° C., 10 h) of the same substance?
Its value is 12.5 µg/mL.

With “PRT782 (AERCDCSHADGCHPTTGHCRCLPGWSGVHCD; listed as Homo sapiens)” as the substance, how does the “MIC (μg/mL) A. hydrophila” value (Aeromonas hydrophila; 10 h cultivation at 37° C.) read?
Its value is 12.5 µg/mL.

What about the “MIC (μg/mL) S. marcescens” value (Serratia marcescens; 10 h cultivation at 37° C.) of the same substance?
The value was 50 µg/mL.

And the “MIC (μg/mL) P. aeruginosa” value (Pseudomonas aeruginosa; 10 h cultivation at 37° C.)?
Its value is 12.5 µg/mL.

What about the MIC (E. coli DH5α) of the same substance?
Its MIC is 50 µg/mL.

What about the “MIC (μg/mL) E. coli BL21” value (E. coli BL21; 10 h cultivation at 37° C.) of the same substance?
The value was 25 µg/mL.

And the “MIC (μg/mL) P. mirabilis” value (Proteus mirabilis; 10 h cultivation at 37° C.)?
The value was 25 µg/mL.

And the “MIC (μg/mL) K. pneumonia” value (Klebsiella pneumonia; 10 h cultivation at 37° C.)?
The value was 12.5 µg/mL.

And the “MIC (μg/mL) M. catarrhalis” value (Moraxella catarrhalis; 10 h cultivation at 37° C.)?
The value was 12.5 µg/mL.

What about the “MIC (μg/mL) C. diversus” value (Citrobacter diversus; 10 h cultivation at 37° C.) of the same substance?
Its value is 12.5 µg/mL.

And the “MIC (μg/mL) P. vulgaris” value (Proteus vulgaris; 10 h cultivation at 37° C.)?
The value was 12.5 µg/mL.

What about the “MIC (μg/mL) E. cloacae” value (Enterobacter cloacae; 10 h cultivation at 37° C.) of the same substance?
Its value is 12.5 µg/mL.
